Measured values from patent publication US7674594B2, “Screening assay for inhibitors of TRPA1 activation by a lower alkyl phenol” (Redpoint Bio Corporation, priority 2006, dated 2010).
Read-outs that look alike come from different tables or passages of the source.

Assays:
hTRPA1 [1] = target: T1, hTRPA1 (Homo sapiens, UniProt O75762); experiment: Membrane potential dye fluorescence assay (FLIPR/FLEXstation), activation of hTRPA1 in transfected HEK293 cells; format: cell-based
T1 construct: The full length hTRPA1 was amplified by PCR with Kpn1 and Xho1 restriction enzyme sites; expressed in transfected cells; also transient transfection
Description: Once expression of TRPA1 was confirmed, 100 μl of the Blue or Red FMP dye (Molecular Devices) was added to each well of plates seeded with the transiently transfected cells. The plate was then incubated in a 37° C./5% CO2 incubator for 1 hour. The plate was read in a FLEXStation microplate reader (Molecular Devices) with an excitation of 530 nm and an emission of 565 nm. The fluorescence was monitored for 3 minutes upon exposure of the cells to a TRPA1 activating agent (e.g., cinnamaldehyde).
(§1) Samples in a 384-well plate were evaluated in a 5 minute assay on the FLIPR-Tetra™ (Molecular Devices). The assay was performed on a FLIPR™ using the excitation 510-545 nm and emission 565-625 nm filter sets. TRPA1-Transfected HEK cells, 15,000/well, were seeded overnight on poly-D-lysine coated 384 well plates in 20 μl media. Membrane Potential Assay Dye Red (Molecular Devices), 20 μl/well, was added and the plates incubated for 1 hour in a 37° C. and 5% CO2 incubator. The plates were then removed from the incubator and equilibrated to room temperature for 15 minutes before reading on the FLIPR®. The plates were read on the FLIPR® for a total of 3 minutes. Baseline fluorescence was obtained on the FLIPR® for 10 seconds followed by addition (typically 10 μl) of each agonist by the FLIPR® and read for an additional 2 minutes and 50 seconds.

parental HEK293 cells = experiment: Membrane potential dye fluorescence assay in parental (non-transfected) HEK293 cells; format: cell-based, human
hTRPV1 = target: T2, hTRPV1 (Homo sapiens, UniProt Q8NER1); experiment: Membrane potential dye fluorescence assay, HEK293 cells expressing hTRPV1; format: cell-based
T2 construct: expressed in transfected cells
Description: as §1
(§2) HEK293 cells were stably transfected with one of hTRPA1, hTRPV1 or hTRPM5. CHO cells were stably transfected with one of hTRPM4B or TRPM5. Parental HEK293 and CHO cells were also used as a negative control.

hTRPM4B = target: T3, hTRPM4B (Homo sapiens, UniProt Q8TD43); experiment: Membrane potential dye fluorescence assay, CHO cells expressing hTRPM4B; format: cell-based
T3 construct: expressed in transfected cells
Description: as §1, §2

hTRPM5 = target: T4, hTRPM5 (Homo sapiens, UniProt Q9NZQ8); experiment: Membrane potential dye fluorescence assay, HEK293 or CHO cells expressing hTRPM5; format: cell-based
T4 construct: expressed in transfected cells
T4 sequence (Q9NZQ8 1-1165): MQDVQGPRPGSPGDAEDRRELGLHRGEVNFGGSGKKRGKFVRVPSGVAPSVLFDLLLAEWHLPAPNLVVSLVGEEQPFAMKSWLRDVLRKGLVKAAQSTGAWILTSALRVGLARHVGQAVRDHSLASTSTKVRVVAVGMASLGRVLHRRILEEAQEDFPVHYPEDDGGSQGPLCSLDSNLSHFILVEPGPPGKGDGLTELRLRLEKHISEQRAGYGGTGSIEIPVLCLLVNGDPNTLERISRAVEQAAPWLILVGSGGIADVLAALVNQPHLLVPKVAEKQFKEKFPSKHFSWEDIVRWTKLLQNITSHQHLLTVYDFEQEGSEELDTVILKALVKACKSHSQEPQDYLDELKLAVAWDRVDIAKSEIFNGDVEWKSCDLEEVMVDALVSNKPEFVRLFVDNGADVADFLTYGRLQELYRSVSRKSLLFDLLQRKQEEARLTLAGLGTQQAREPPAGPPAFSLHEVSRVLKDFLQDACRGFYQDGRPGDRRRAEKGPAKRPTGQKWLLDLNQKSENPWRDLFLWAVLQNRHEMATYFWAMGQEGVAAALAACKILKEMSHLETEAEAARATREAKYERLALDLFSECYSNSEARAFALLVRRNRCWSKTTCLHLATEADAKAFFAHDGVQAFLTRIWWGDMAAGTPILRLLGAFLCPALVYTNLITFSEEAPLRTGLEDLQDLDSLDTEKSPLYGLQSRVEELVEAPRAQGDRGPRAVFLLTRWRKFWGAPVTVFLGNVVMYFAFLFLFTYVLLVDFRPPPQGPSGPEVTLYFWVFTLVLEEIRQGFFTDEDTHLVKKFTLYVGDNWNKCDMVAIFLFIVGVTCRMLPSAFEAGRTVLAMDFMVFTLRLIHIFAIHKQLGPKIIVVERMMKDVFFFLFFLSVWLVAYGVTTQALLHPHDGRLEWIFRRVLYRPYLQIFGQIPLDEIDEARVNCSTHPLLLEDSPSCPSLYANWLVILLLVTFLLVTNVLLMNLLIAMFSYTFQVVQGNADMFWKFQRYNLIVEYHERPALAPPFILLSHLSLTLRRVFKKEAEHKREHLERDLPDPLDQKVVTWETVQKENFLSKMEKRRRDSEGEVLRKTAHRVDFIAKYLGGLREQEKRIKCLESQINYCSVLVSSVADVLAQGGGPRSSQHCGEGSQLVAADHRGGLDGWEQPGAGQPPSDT
Description: as §1, §2

mice = experiment: Taste aversion (lick) assay in mice; format: in vivo, mouse
Description: In this assay, the ability of identified lower alkyl phenols to evoke taste aversion in mice was measured. Mice were exposed to increasing concentrations of lower alkyl phenols.

hTRPA1 [2] = target: T1, hTRPA1; experiment: Modulation of agonist-activated TRPA1 in HEK293 cells expressing hTRPA1 (membrane potential dye); format: cell-based; settings: HEK293 cells
Description: as §1
(§3) Appropriate control experiments are performed and can easily be determined by the skilled artisan.
(§4) HEK293 cells and CHO cells expressing TRPA1 were subjected to the assay described in Example 2.

hTRPA1 [3] = target: T1, hTRPA1; experiment: Modulation of agonist-activated TRPA1 in CHO cells expressing hTRPA1 (membrane potential dye); format: cell-based
Description: as §1, §3, §4

[4] = HEK293 cells stably transfected with hTRPA1, FMP dye, FLIPR
[5] = hTRPA1 HEK293 cells, increase in fluorescence of membrane potential dye
[6] = HEK293, increasing concentrations, FIG. 6
[7] = CHO, increasing concentrations, FIG. 6
[8] = increasing concentrations, FIG. 6

T3 sequence (Q8TD43 whole entry): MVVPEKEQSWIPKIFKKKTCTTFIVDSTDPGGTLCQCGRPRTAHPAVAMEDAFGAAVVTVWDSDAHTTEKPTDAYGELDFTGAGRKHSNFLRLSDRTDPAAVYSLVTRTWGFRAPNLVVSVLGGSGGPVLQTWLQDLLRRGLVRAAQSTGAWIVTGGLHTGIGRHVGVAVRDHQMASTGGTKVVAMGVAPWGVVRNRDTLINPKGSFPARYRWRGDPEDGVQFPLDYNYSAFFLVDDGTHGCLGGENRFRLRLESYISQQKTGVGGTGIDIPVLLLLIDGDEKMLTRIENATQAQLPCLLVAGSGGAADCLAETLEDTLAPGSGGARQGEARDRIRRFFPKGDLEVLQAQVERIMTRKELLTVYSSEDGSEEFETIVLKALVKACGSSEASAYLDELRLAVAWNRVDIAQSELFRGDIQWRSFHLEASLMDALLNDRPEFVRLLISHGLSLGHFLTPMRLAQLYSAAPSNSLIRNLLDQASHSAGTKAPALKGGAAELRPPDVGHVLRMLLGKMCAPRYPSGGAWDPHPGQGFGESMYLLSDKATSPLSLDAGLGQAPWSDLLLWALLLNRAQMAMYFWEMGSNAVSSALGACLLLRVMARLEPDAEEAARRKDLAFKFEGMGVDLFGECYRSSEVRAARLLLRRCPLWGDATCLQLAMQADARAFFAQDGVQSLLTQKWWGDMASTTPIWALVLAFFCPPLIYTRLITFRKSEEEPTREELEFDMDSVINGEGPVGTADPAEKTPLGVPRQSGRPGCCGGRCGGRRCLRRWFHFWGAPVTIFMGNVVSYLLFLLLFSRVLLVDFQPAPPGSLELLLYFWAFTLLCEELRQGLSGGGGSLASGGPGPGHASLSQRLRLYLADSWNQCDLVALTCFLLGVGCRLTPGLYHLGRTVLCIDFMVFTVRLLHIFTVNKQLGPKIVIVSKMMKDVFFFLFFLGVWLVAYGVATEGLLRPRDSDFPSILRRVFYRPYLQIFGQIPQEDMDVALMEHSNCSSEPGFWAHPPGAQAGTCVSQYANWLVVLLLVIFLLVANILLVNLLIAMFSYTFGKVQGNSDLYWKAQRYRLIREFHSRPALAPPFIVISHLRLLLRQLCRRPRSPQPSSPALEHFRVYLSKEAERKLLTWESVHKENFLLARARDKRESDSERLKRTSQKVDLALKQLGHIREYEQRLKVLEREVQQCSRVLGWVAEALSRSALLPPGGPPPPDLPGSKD
T1 sequence (O75762 whole entry): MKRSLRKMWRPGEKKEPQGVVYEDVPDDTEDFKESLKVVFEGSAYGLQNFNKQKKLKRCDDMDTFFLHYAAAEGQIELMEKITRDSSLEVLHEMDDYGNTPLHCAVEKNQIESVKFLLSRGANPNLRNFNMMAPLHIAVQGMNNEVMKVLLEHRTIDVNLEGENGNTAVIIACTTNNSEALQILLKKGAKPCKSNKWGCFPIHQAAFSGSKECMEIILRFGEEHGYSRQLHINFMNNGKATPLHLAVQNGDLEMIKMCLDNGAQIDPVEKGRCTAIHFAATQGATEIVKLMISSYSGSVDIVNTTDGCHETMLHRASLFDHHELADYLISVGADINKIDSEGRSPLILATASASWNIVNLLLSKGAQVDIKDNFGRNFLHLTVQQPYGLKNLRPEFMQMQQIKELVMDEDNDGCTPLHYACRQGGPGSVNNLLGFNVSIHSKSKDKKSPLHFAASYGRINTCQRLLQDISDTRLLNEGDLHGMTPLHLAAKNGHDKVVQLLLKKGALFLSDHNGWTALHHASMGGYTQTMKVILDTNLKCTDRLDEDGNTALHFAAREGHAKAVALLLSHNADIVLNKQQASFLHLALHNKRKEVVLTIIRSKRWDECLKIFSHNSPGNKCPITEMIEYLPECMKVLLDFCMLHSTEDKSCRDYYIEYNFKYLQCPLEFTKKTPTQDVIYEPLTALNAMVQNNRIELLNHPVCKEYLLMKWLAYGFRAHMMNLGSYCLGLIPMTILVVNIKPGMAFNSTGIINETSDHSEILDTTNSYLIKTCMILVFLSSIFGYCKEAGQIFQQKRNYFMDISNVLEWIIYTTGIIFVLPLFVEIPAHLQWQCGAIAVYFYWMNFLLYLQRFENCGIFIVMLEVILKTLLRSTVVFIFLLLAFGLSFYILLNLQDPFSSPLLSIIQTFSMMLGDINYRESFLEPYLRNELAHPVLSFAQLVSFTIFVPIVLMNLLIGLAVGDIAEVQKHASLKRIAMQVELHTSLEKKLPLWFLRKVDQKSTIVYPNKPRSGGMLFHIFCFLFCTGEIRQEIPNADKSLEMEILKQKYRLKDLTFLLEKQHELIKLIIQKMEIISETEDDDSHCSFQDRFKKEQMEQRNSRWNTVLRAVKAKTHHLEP
T2 sequence (Q8NER1 whole entry): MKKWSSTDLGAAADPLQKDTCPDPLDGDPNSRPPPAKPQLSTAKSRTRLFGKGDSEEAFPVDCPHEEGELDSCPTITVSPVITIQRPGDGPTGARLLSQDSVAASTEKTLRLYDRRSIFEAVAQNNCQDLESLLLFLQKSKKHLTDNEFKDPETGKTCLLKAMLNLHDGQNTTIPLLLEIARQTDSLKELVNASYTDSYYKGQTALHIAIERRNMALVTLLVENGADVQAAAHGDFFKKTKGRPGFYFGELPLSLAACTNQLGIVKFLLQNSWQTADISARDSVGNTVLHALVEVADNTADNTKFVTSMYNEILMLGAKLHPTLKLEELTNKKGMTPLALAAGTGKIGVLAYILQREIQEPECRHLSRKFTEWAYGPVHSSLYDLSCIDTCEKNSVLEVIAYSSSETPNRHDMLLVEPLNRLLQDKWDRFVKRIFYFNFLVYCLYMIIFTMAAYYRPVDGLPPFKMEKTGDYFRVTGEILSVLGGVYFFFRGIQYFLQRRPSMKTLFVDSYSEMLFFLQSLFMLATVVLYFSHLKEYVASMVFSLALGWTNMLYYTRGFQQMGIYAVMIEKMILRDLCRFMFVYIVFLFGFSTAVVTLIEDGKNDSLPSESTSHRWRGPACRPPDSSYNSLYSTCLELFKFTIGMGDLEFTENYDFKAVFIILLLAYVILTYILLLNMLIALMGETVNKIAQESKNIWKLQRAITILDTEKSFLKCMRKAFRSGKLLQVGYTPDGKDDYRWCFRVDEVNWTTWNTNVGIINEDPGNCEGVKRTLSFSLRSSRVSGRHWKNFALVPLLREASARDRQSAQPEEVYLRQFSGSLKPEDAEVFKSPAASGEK

SMILES	EC50 (hTRPA1 [1]; [4]) [µM]	TRPA1 activation / agonist activity (in words) (hTRPA1 [1]; [5])	response of parental HEK293 cells (in words) (parental HEK293 cells; cells not expressing TRPA1)	response of cells expressing hTRPV1 (in words) (hTRPV1; [6])	response of cells expressing hTRPM4B (in words) (hTRPM4B; [7])	response of cells expressing hTRPM5 (in words) (hTRPM5; [8])	other results
Cc1ccc(C)c(O)c1 [2,5-dimethylphenol]	52 ± 29	generated an increase in relative fluorescence	no response	did not generate the same increase in relative fluorescence	did not generate the same increase in relative fluorescence	did not generate the same increase in relative fluorescence	taste aversion, licks/trial (in words) (mice; mice, increasing concentrations): a decrease in licks/trial
Cc1cccc(C)c1O [2,6-dimethylphenol]	66 ± 22	generated an increase in relative fluorescence	no response	did not generate the same increase in relative fluorescence	did not generate the same increase in relative fluorescence	did not generate the same increase in relative fluorescence	–
Cc1ccc(C(C)(C)C)c(O)c1 [2-tert-butyl-5-methylphenol]	4 ± 2	generated an increase in relative fluorescence	background fluorescence	did not generate the same increase in relative fluorescence	did not generate the same increase in relative fluorescence	did not generate the same increase in relative fluorescence	–
Cc1ccc(O)cc1C [3,4-dimethylphenol]	–	–	no response	–	–	–	–
CC12CCC(CC1=O)C2(C)C (centres unmarked) [Camphor]	–	has no agonist activity	–	–	–	–	TRPA1 activation / agonist activity (in words) (hTRPA1 [1]; hTRPA1 HEK293 cells, increase in fluorescence of membrane potential dye, listed as camphor): are TRPA1 agonists; inhibition of allyl isothiocyanate activated TRPA1 (in words) (hTRPA1 [2]): fully inhibited; inhibition of cinnamaldehyde activated TRPA1 (in words) (hTRPA1 [2]): fully inhibited; inhibition of thymol activated TRPA1 (in words) (hTRPA1 [2]): fully inhibited; inhibition of thymol activated TRPA1 (in words) (hTRPA1 [2]; listed as camphor): agonists of thymol activation of TRPA1; inhibition of allyl isothiocyanate activated TRPA1 (in words) (hTRPA1 [3]): potentially inhibits; inhibition of cinnamaldehyde activated TRPA1 (in words) (hTRPA1 [3]): potentially inhibits; inhibition of thymol activated TRPA1 (in words) (hTRPA1 [3]): fully inhibits
CC1(C)[C@@H]2C[C@H]1[C@@](C)(O)[C@@H](O)C2 [Pinanediol]	–	Neither isomer (+ shown) had a significant agonist activity until 10 mM	–	–	–	–	inhibition of thymol activated TRPA1 (in words) (hTRPA1 [2]): both inhibited TRPA1 activation at 1 mM
CC(C)c1cccc(C(C)C)c1O [Propofol]	–	–	–	–	–	–	EC50 (hTRPA1 [1]): 13 ± 6 µM; TRPA1 activation / agonist activity (in words) (hTRPA1 [1]): generated an increase in relative fluorescence; response of parental HEK293 cells (in words) (parental HEK293 cells): background fluorescence; response of cells expressing hTRPV1 (in words) (hTRPV1): did not generate the same increase in relative fluorescence; response of cells expressing hTRPM4B (in words) (hTRPM4B): did not generate the same increase in relative fluorescence; response of cells expressing hTRPM5 (in words) (hTRPM5): did not generate the same increase in relative fluorescence; taste aversion, licks/trial (in words) (mice; mouse, in vivo): a decrease in licks/trial
